Experimental data from patent US7566786B2, “Quinoline derivatives as phosphodiesterase inhibitors” (Glaxo Group Limited, priority 2003, dated 2009).
Where a name gives a salt, the structure may show the parent alone.

Legend:
PDE5 (human recombinant) = PDE5 (human recombinant) (Homo sapiens, UniProt O76074); assay: Inhibition of PDE5 activity: Radioactive Scintillation Proximity Assay (SPA); assay type: biochemical; details: read-out: PDE5 mean pIC50 (converted)
Source text: Human recombinant PDE5 is disclosed in K. Loughney et al., “Isolation and characterisation of cDNAs encoding PDE5A, a human cGMP-binding, cGMP-specific 3′,5′-cyclic nucleotide phosphodiesterase”, Gene, 1998, 216, 139-147.
(§1) 2. Inhibition of PDE3, PDE4B, PDE4D, PDE5 or PDE6 Activity: Radioactive Scintillation Proximity Assay (SPA)
(§2) The ability of compounds to inhibit catalytic activity at PDE4B or 4D (human recombinant), PDE3 (from bovine aorta), PDE5 (human recombinant) or PDE 6 (from bovine retina) was determined by Scintillation Proximity Assay (SPA) in 96-well format. Test compounds (preferably as a solution in DMSO, e.g. 2 microlitre (μl) volume) were preincubated at ambient temperature in Wallac Isoplates (code 1450-514) with PDE enzyme in 50 mM Tris-HCl buffer pH 7.5, 8.3 mM MgCl2, 1.7 mM EGTA, 0.05% (w/v) bovine serum albumin for 10-30 minutes. The enzyme concentration was adjusted so that no more than 20% hydrolysis of the substrate occurred in control wells without compound, during the incubation. For the PDE3, PDE4B and PDE4D assays [5′,8-^3H]adenosine 3′,5′-cyclic phosphate (Amersham Pharmacia Biotech, code TRK.559 or Amersham Biosciences UK Ltd, Pollards Wood, Chalfont St Giles, Buckinghamshire HP8 4SP, UK) was added to give 0.05 μCi per well and ˜10 nM final concentration. For the PDE5 and PDE6 assays [8-^3H]guanosine 3′,5′-cyclic phosphate (Amersham Pharmacia Biotech , code TRK.392) was added to give 0.05 μCi per well and ˜36 nM final concentration. Plates e.g. containing approx. 100 μl volume of assay mixture were mixed on an orbital shaker for 5 minutes and incubated at ambient temperature for 1 hour. Phosphodiesterase SPA beads (Amersham Pharmacia Biotech, code RPNQ 0150) suspended in buffer were added (˜1 mg per well) to terminate the assay. Plates were sealed and shaken and allowed to stand at ambient temperature for 35 minutes to 1 hour to allow the beads to settle. Bound radioactive product was measured using a WALLAC TRILUX 1450 Microbeta scintillation counter. […] Curves were analysed using
(§3) ActivityBase and XLfit (ID Business Solutions Limited, 2 Ocean Court, Surrey Research Park, Guildford, Surrey GU2 7QB, United Kingdom). Results were expressed as pIC50 values.

[1] = target: T1, PDE4B (human recombinant) (Homo sapiens, UniProt Q07343); assay: Inhibition of PDE4B activity: Radioactive Scintillation Proximity Assay (SPA); assay type: biochemical; details: SPA or FP format not given; for IC50: read-out: PDE4B mean pIC50 (converted)
T1 construct: made in house
Source text: Human recombinant PDE4B, in particular the 2B splice variant thereof (HSPDE4B2B), is disclosed in WO 94/20079 and also in M. M. McLaughlin et al., “A low Km, rolipram-sensitive, cAMP-specific phosphodiesterase from human brain: cloning and expression of cDNA, biochemical characterisation of recombinant protein, and tissue distribution of mRNA”, J. Biol. Chem., 1993, 268, 6470-6476. For example, in Example 1 of WO 94/20079, human recombinant PDE4B is described as being expressed in the PDE-deficient yeast Saccharomyces cerevisiae strain GL62, e.g. after induction by addition of 150 μM CuSO4, and 100,000×g supernatant fractions of yeast cell lysates are described for use in the harvesting of PDE4B enzyme.
as §1, §2, §3

T1 sequence (Q07343 1-564 isoform Q07343-2): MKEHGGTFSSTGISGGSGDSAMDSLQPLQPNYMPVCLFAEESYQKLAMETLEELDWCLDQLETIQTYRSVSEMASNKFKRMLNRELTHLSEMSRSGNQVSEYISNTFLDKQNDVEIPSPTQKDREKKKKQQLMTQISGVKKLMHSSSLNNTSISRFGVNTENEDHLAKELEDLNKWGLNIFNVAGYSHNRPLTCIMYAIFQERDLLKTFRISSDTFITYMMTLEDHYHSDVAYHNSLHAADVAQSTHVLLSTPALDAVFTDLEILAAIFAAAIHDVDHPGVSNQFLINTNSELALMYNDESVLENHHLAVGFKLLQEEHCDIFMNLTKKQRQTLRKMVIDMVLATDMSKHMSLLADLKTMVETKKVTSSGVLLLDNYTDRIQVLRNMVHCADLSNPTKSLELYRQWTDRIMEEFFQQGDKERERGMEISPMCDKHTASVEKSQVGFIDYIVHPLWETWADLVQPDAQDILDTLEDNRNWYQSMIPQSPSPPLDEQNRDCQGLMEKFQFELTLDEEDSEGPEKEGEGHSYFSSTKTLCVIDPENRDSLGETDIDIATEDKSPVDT

| IC50 (PDE5 (human recombinant)) [nM] | IC50 [1] [nM] | PDE4B mean pIC50 [1] | SMILES |
| --- | --- | --- | --- |
| 15800 |  |  | COc1cccc(Nc2c(C(N)=O)cnc3ccc(S(C)(=O)=O)cc23)c1 [Example 27, 4-{[3-(methyloxy)phenyl]amino}-6-(methylsulfonyl)-3-quinolinecarboxamide] |
| > 31600 | 20 |  | CN(C)c1cccc(Nc2c(C(N)=O)cnc3ccc(S(=O)(=O)C4CCCC4)cc23)c1 [Example 92] |
| 6310 | 0.00501 |  | COc1ccc(S(=O)(=O)c2cc(C)c3ncc(C(N)=O)c(Nc4cccc(OC)c4)c3c2)cc1 [Example 265, 8-methyl-4-{[3-(methyloxy)phenyl]amino}-6-{[4-(methyloxy)phenyl]sulfonyl}-3-quinolinecarboxamide] |
| > 25100 | 0.0316 |  | Cc1cc(S(C)(=O)=O)cc2c(Nc3cccc4c3CCO4)c(C(N)=O)cnc12 [Example 307, 4-(2,3-dihydro-1-benzofuran-4-ylamino)-8-methyl-6-(methylsulfonyl)-3-quinolinecarboxamide] |
| > 12600 | 0.0794 |  | Cc1cc(S(C)(=O)=O)cc2c(Nc3ccc4cnn(C)c4c3)c(C(N)=O)cnc12 [Example 309, 8-methyl-4-[(1-methyl-1H-indazol-6-yl)amino]-6-(methylsulfonyl)-3-quinolinecarboxamide] |
| > 31600 |  | 9.4 | Cc1cc(S(C)(=O)=O)cc2c(Nc3cccc(C#N)c3)c(C(N)=O)cnc12 [Example 312, 4-[(3-cyanophenyl)amino]-8-methyl-6-(methylsulfonyl)-3-quinolinecarboxamide] |
| 7940 | 0.316 |  | Cc1cccc(Nc2c(C(N)=O)cnc3c(Cl)cc(S(C)(=O)=O)cc23)c1 [Example 369, 8-chloro-4-[(3-methylphenyl)amino]-6-(methylsulfonyl)-3-quinolinecarboxamide] |
| > 100 | 0.00398 |  | COc1cccc(Nc2c(C(N)=O)cnc3c(C)cc(S(=O)(=O)c4ccc(OC)c(OC)c4)cc23)c1 [Example 380, 6-{[3,4-bis(methyloxy)phenyl]sulfonyl}-8-methyl-4-{[3-(methyloxy)phenyl]amino}-3-quinolinecarboxamide] |
| > 10000 | 0.01 |  | COc1cccc(Nc2c(C(N)=O)cnc3ccc(S(=O)(=O)c4cccc(C(=O)N(C)C)c4)cc23)c1 [Example 400, 6-({3-[(dimethylamino)carbonyl]phenyl}sulfonyl)-4-{[3-(methyloxy)phenyl]amino}-3-quinolinecarboxamide] |
|  | 0.00398 |  | Cc1cc(S(=O)(=O)c2cccc(C(=O)N(C)C)c2)cc2c(Nc3cccc(C#N)c3)c(C(N)=O)cnc12 [Example 408, 4-[(3-cyanophenyl)amino]-6-({3-[(dimethylamino)carbonyl]phenyl}sulfonyl)-8-methyl-3-quinolinecarboxamide] |
| > 31600 | 0.00501 |  | Cc1cc(S(=O)(=O)C2CCN(C(=O)c3ccco3)CC2)cc2c(Nc3cccc4c3CCO4)c(C(N)=O)cnc12 [Example 446, 4-(2,3-dihydro-1-benzofuran-4-ylamino)-6-{[1-(2-furanylcarbonyl)-4-piperidinyl]sulfonyl}-8-methyl-3-quinolinecarboxamide] |
| > 3160 | 0.01 |  | Cc1cc(S(=O)(=O)CCNS(C)(=O)=O)cc2c(Nc3cccc4c3CCO4)c(C(N)=O)cnc12 [Example 457, 4-(2,3-dihydro-1-benzofuran-4-ylamino)-8-methyl-6-({2-[(methylsulfonyl)amino]ethyl}sulfonyl)-3-quinolinecarboxamide] |
| > 10000 | 1.26 |  | Cc1cc(S(C)(=O)=O)cc2c(Nc3cc(F)cc(F)c3)c(C(N)=O)cnc12 [Example 502, 4-[(3,5-difluorophenyl)amino]-8-methyl-6-(methylsulfonyl)-3-quinolinecarboxamide] |
| 20000 | 0.02 |  | COc1cccc(Nc2c(C(N)=O)cnc3c(C)cc(S(=O)(=O)c4cncc(C(=O)N(C)C)c4)cc23)c1 [Example 546, 6-({5-[(dimethylamino)carbonyl]-3-pyridinyl}sulfonyl)-8-methyl-4-{[3-(methyloxy)phenyl]amino}3-quinolinecarboxamide hydrochloride] |

| SMILES | IC50 (PDE5 (human recombinant)) [nM] | IC50 [1] [nM] | PDE4B mean pIC50 [1] |
| --- | --- | --- | --- |
| COc1cccc(Nc2c(C(N)=O)cnc3c(C)cc(S(=O)(=O)c4cccc(C(=O)N(C)C)c4)cc23)c1 [Example 399, 6-({3-[(dimethylamino)carbonyl]phenyl}sulfonyl)-8-methyl-4-{[3-(methyloxy)phenyl]amino}-3-quinolinecarboxamide] | 2510 | < 0.00251 |  |
